Test results reported in publication PMC5218480 (PLoS ONE, 2017).

Tested on: MV-4-11 cells
Experiment: Gene expression microarray analysis (Affymetrix PrimeView) and GSEA
Format: cell-based, human
Set-up: RFU PODN (11730768_x_at) / Fold change /veh PODN (11730768_x_at) / RFU LINC00158 (11744669_a_at) / Fold change /veh LINC00158 (11744669_a_at) / RFU DUSP10 (11751237_a_at) / Fold change /veh DUSP10 (11751237_a_at) / RFU ID3 (11757404_x_at) / Fold change /veh ID3 (11757404_x_at) / RFU PLEKHG5 (11737974_s_at) / Fold change /veh PLEKHG5 (11737974_s_at) / RFU LRRC4B (11730491_at) / Fold change /veh LRRC4B (11730491_at) / RFU GIMAP4 (11747438_a_at) / Fold change /veh GIMAP4 (11747438_a_at) / RFU KRT8 (11758183_x_at) / Fold change /veh KRT8 (11758183_x_at) / RFU CNN1 (11734310_a_at) / Fold change /veh CNN1 (11734310_a_at) / RFU VPS37D (11726825_at) / Fold change /veh VPS37D (11726825_at) / RFU C10orf10 (11716522_x_at) / Fold change /veh C10orf10 (11716522_x_at) / RFU KIR2DL2 /// KIR2DL4 /// KIR2DL5A /// KIR2DL5B /// KIR2DS1 /// KIR2DS2 /// KIR2DS3 /// KIR2DS4 /// KIR3DL3 /// KIR3DL3 /// KIR3DS1 (11738374_at) / Fold change /veh KIR2DL2 /// KIR2DL4 /// KIR2DL5A /// KIR2DL5B /// KIR2DS1 /// KIR2DS2 /// KIR2DS3 /// KIR2DS4 /// KIR3DL3 /// KIR3DL3 /// KIR3DS1 (11738374_at) / RFU C1QL1 (11718748_at) / Fold change /veh C1QL1 (11718748_at) / RFU TMPRSS4 (11747572_a_at) / Fold change /veh TMPRSS4 (11747572_a_at) / RFU HAMP (11756126_x_at) / Fold change /veh HAMP (11756126_x_at) / RFU RNFT2 (11725882_a_at) / Fold change /veh RNFT2 (11725882_a_at) / RFU NR4A2 (11747474_a_at) / Fold change /veh NR4A2 (11747474_a_at) / RFU ABCC12 (11746883_a_at) / Fold change /veh ABCC12 (11746883_a_at) / RFU TMEM136 (11760407_x_at) / Fold change /veh TMEM136 (11760407_x_at) / RFU CLDN22 /// WWC2 (11732394_at) / Fold change /veh CLDN22 /// WWC2 (11732394_at) / RFU HLA-DPB1 (11760878_x_at) / Fold change /veh HLA-DPB1 (11760878_x_at) / RFU SPINT1 (11716480_a_at) / Fold change /veh SPINT1 (11716480_a_at) / RFU GAP43 (11754022_s_at) / Fold change /veh GAP43 (11754022_s_at) / RFU A4GNT (11735810_at) / Fold change /veh A4GNT (11735810_at) / RFU PRB3 (11715151_x_at) / Fold change /veh PRB3 (11715151_x_at) / RFU TUBB4B (11761932_at) / Fold change /veh TUBB4B (11761932_at) / RFU CAPN14 (11732068_a_at) / Fold change /veh CAPN14 (11732068_a_at) / RFU TMCC2 (11721928_a_at) / Fold change /veh TMCC2 (11721928_a_at) / RFU IRGQ (11745062_a_at) / Fold change /veh IRGQ (11745062_a_at) / RFU FAM174B (11720279_a_at) / Fold change /veh FAM174B (11720279_a_at) / RFU TMPRSS4 (11748680_a_at) / Fold change /veh TMPRSS4 (11748680_a_at) / RFU FAM212B (11763350_a_at) / Fold change /veh FAM212B (11763350_a_at) / RFU PLEKHG5 (11743358_a_at) / Fold change /veh PLEKHG5 (11743358_a_at) / RFU ZSCAN30 (11745921_a_at) / Fold change /veh ZSCAN30 (11745921_a_at) / RFU CMKLR1 (11741424_a_at) / Fold change /veh CMKLR1 (11741424_a_at) / RFU LOC101060620 /// MAPK8IP1 (11723275_at) / Fold change /veh LOC101060620 /// MAPK8IP1 (11723275_at) / RFU SPTSSB (11747773_x_at) / Fold change /veh SPTSSB (11747773_x_at) / RFU PRSS12 (11739890_at) / Fold change /veh PRSS12 (11739890_at) / RFU BIN1 (11741810_x_at) / Fold change /veh BIN1 (11741810_x_at) / RFU WNT11 (11732464_a_at) / Fold change /veh WNT11 (11732464_a_at) / RFU C10orf10 (11716521_a_at) / Fold change /veh C10orf10 (11716521_a_at) / RFU C5orf56 (11738089_at) / Fold change /veh C5orf56 (11738089_at) / RFU CYB561 (11721691_x_at) / Fold change /veh CYB561 (11721691_x_at) / RFU ANKRD19P (11752326_a_at) / Fold change /veh ANKRD19P (11752326_a_at) / RFU OR2T12 /// OR2T33 /// OR2T8 (11738714_s_at) / Fold change /veh OR2T12 /// OR2T33 /// OR2T8 (11738714_s_at) / RFU VCAN (11748164_a_at) / Fold change /veh VCAN (11748164_a_at) / RFU JSRP1 (11732532_at) / Fold change /veh JSRP1 (11732532_at) / RFU KRTAP10-11 (11738290_x_at) / Fold change /veh KRTAP10-11 (11738290_x_at) / RFU MYO3A (11730013_a_at) / Fold change /veh MYO3A (11730013_a_at) / RFU EBF3 (11725865_a_at) / Fold change /veh EBF3 (11725865_a_at) / RFU CAMK2N1 (11719241_x_at) / Fold change /veh CAMK2N1 (11719241_x_at) / RFU C5orf56 (11738088_a_at) / Fold change /veh C5orf56 (11738088_a_at) / RFU OLFML3 (11715873_a_at) / Fold change /veh OLFML3 (11715873_a_at) / RFU LOC100653217 /// NTM (11731650_a_at) / Fold change /veh LOC100653217 /// NTM (11731650_a_at) / RFU MAPK11 (11762145_a_at) / Fold change /veh MAPK11 (11762145_a_at) / RFU FIZ1 (11724087_x_at) / Fold change /veh FIZ1 (11724087_x_at) / RFU OASL (11726364_x_at) / Fold change /veh OASL (11726364_x_at) / RFU SOX15 (11748057_x_at) / Fold change /veh SOX15 (11748057_x_at) / RFU CD79A (11719716_a_at) / Fold change /veh CD79A (11719716_a_at) / RFU HIST1H1D (11736915_at) / Fold change /veh HIST1H1D (11736915_at) / RFU CASKIN2 (11723855_a_at) / Fold change /veh CASKIN2 (11723855_a_at) / RFU LOC730098 (11760151_x_at) / Fold change /veh LOC730098 (11760151_x_at) / RFU OR4N2 (11742367_at) / Fold change /veh OR4N2 (11742367_at) / RFU PRRT2 (11749266_a_at) / Fold change /veh PRRT2 (11749266_a_at) / RFU SNX32 (11753110_a_at) / Fold change /veh SNX32 (11753110_a_at) / RFU CDHR5 (11726645_a_at) / Fold change /veh CDHR5 (11726645_a_at) / RFU RCAN1 (11760418_a_at) / Fold change /veh RCAN1 (11760418_a_at) / RFU FAM167A (11723789_a_at) / Fold change /veh FAM167A (11723789_a_at) / RFU FAM26E (11764081_at) / Fold change /veh FAM26E (11764081_at) / RFU ISYNA1 (11749810_s_at) / Fold change /veh ISYNA1 (11749810_s_at) / RFU ACY1 (11761880_at) / Fold change /veh ACY1 (11761880_at) / RFU 11764098_at / Fold change /veh 11764098_at / RFU SAMD14 (11745864_x_at) / Fold change /veh SAMD14 (11745864_x_at) / RFU NPB (11741838_a_at) / Fold change /veh NPB (11741838_a_at) / RFU TMPRSS6 (11731388_a_at) / Fold change /veh TMPRSS6 (11731388_a_at) / RFU KRTAP10-2 (11738614_at) / Fold change /veh KRTAP10-2 (11738614_at) / RFU ARHGAP8 /// PRR5-ARHGAP8 (11727945_x_at) / Fold change /veh ARHGAP8 /// PRR5-ARHGAP8 (11727945_x_at) / RFU KRTAP5-7 /// NADSYN1 (11734609_at) / Fold change /veh KRTAP5-7 /// NADSYN1 (11734609_at) / RFU RASL12 (11751679_a_at) / Fold change /veh RASL12 (11751679_a_at) / RFU CDKN2B (11736163_a_at) / Fold change /veh CDKN2B (11736163_a_at) / RFU PRF1 (11729649_at) / Fold change /veh PRF1 (11729649_at) / RFU, ZNF638 /// ZNF638-IT1 / Fold change vs veh, ZNF638 /// ZNF638-IT1 / RFU, PANK3 / Fold change vs veh, PANK3 / RFU, SH3YL1 / Fold change vs veh, SH3YL1 / RFU, ZEB2 / Fold change vs veh, ZEB2 / RFU, NRIP1 / Fold change vs veh, NRIP1 / RFU, PTTG1IP / Fold change vs veh, PTTG1IP / RFU, CAPN2 / Fold change vs veh, CAPN2 / RFU, MED14 / Fold change vs veh, MED14 / RFU, SNORA58 / Fold change vs veh, SNORA58 / RFU, C1orf63 / Fold change vs veh, C1orf63 / RFU, LRRFIP1 / Fold change vs veh, LRRFIP1 / RFU, NDUFAF7 / Fold change vs veh, NDUFAF7 / RFU, SLC12A2 / Fold change vs veh, SLC12A2 / RFU, IBTK / Fold change vs veh, IBTK / RFU, ESF1 / Fold change vs veh, ESF1 / Fold change vs veh, TMEM50B / RFU, TAOK1 / Fold change vs veh, TAOK1 / RFU, ACBD3 / Fold change vs veh, ACBD3 / RFU, TMA16 / Fold change vs veh, TMA16 / RFU, RWDD3 / Fold change vs veh, RWDD3 / RFU, BCAT1 / Fold change vs veh, BCAT1 / RFU, EDEM3 / Fold change vs veh, EDEM3 / RFU, TMEM33 / Fold change vs veh, TMEM33 / RFU, WDR75 / Fold change vs veh, WDR75 / RFU, AHCTF1 / Fold change vs veh, AHCTF1 / RFU, TFRC / Fold change vs veh, TFRC / RFU, ZDHHC17 / Fold change vs veh, ZDHHC17 / RFU, NOM1 / Fold change vs veh, NOM1 / RFU, ARL8B / Fold change vs veh, ARL8B / RFU, ZBTB11 / Fold change vs veh, ZBTB11 / RFU, TAMM41 / Fold change vs veh, TAMM41 / RFU, KIAA1704 /// LOC100996395 / Fold change vs veh, KIAA1704 /// LOC100996395 / RFU, ING1 / Fold change vs veh, ING1 / RFU, TRMT61B / Fold change vs veh, TRMT61B / RFU, FUBP3 / Fold change vs veh, FUBP3 / RFU, TP53 / Fold change vs veh, TP53 / RFU, TNKS2 / Fold change vs veh, TNKS2 / RFU, ZFP14 / Fold change vs veh, ZFP14 / RFU, ACTR2 / Fold change vs veh, ACTR2 / RFU, PPP3R1 / Fold change vs veh, PPP3R1 / RFU, PIK3R1 / Fold change vs veh, PIK3R1 / RFU, HNRNPA1 / Fold change vs veh, HNRNPA1 / RFU, RNF170 / Fold change vs veh, RNF170 / RFU, ZNF28 / Fold change vs veh, ZNF28 / RFU, RNGTT / Fold change vs veh, RNGTT / RFU, OGT / Fold change vs veh, OGT / RFU, BRD1 / Fold change vs veh, BRD1 / RFU, MARS / Fold change vs veh, MARS / RFU, ZNF655 / Fold change vs veh, ZNF655 / RFU, FAHD1 / Fold change vs veh, FAHD1 / RFU, BDP1 / Fold change vs veh, BDP1 / RFU, LRRCC1 / Fold change vs veh, LRRCC1 / RFU, ARID1A / Fold change vs veh, ARID1A / RFU, ZNF146 / Fold change vs veh, ZNF146 / RFU, ZNF330 / Fold change vs veh, ZNF330 / RFU, GPN3 / Fold change vs veh, GPN3 / RFU, C9orf123 / Fold change vs veh, C9orf123 / RFU, N4BP2L2 / Fold change vs veh, N4BP2L2 / RFU, ARFIP1 / Fold change vs veh, ARFIP1 / RFU, FAM179B / Fold change vs veh, FAM179B / RFU, BCL10 / Fold change vs veh, BCL10 / RFU, UHRF1BP1L / Fold change vs veh, UHRF1BP1L / RFU, BET1 / Fold change vs veh, BET1 / RFU, CNOT2 / Fold change vs veh, CNOT2 / RFU, ZNF268 / Fold change vs veh, ZNF268 / Fold change vs veh, ZNF507 / RFU, DGCR2 / Fold change vs veh, DGCR2 / RFU, WDSUB1 / Fold change vs veh, WDSUB1 / Fold change vs veh, HSP90B1 /// MIR3652 / RFU, ADSS / Fold change vs veh, ADSS / RFU, GK / Fold change vs veh, GK / RFU, ZNF148 / Fold change vs veh, ZNF148 / RFU, TAF9 / Fold change vs veh, TAF9 / RFU, SLC1A5 / Fold change vs veh, SLC1A5 / RFU, SLMO2 / Fold change vs veh, SLMO2 / RFU, ABCC4 / Fold change vs veh, ABCC4 / RFU, LOC101060439 /// RAP1B / Fold change vs veh, LOC101060439 /// RAP1B / RFU, RFX7 / Fold change vs veh, RFX7 / RFU, GTPBP10 / Fold change vs veh, GTPBP10 / RFU, CNEP1R1 / Fold change vs veh, CNEP1R1 / RFU, BIVM-ERCC5 /// ERCC5 / Fold change vs veh, BIVM-ERCC5 /// ERCC5 / RFU, ILF3 / Fold change vs veh, ILF3 / RFU 11762660_at / Fold change /veh 11762660_at / RFU VCAN (11757783_s_at) / Fold change /veh VCAN (11757783_s_at) / RFU DDX43 (11728927_at) / Fold change /veh DDX43 (11728927_at) / RFU KRT8 (11758188_x_at) / Fold change /veh KRT8 (11758188_x_at) / RFU NKD1 (11759106_at) / Fold change /veh NKD1 (11759106_at) / RFU SRD5A1 (11742802_a_at) / Fold change /veh SRD5A1 (11742802_a_at) / RFU TPSAB1 /// TPSB2 (11721975_s_at) / Fold change /veh TPSAB1 /// TPSB2 (11721975_s_at) / RFU GSTM3 (11746129_a_at) / Fold change /veh GSTM3 (11746129_a_at) / RFU IL23R (11737362_x_at) / Fold change /veh IL23R (11737362_x_at) / RFU TMEM51 (11727254_a_at) / Fold change /veh TMEM51 (11727254_a_at) / RFU PIWIL2 (11732686_x_at) / Fold change /veh PIWIL2 (11732686_x_at) / RFU ORM1 (11744905_x_at) / Fold change /veh ORM1 (11744905_x_at) / RFU CCDC152 (11743942_at) / Fold change /veh CCDC152 (11743942_at) / RFU ECM1 (11717891_a_at) / Fold change /veh ECM1 (11717891_a_at) / RFU IL23R (11748794_a_at) / Fold change /veh IL23R (11748794_a_at) / RFU TNFAIP8L3 (11732012_x_at) / Fold change /veh TNFAIP8L3 (11732012_x_at) / RFU MBOAT4 (11741988_at) / Fold change /veh MBOAT4 (11741988_at) / RFU 11764193_at / Fold change /veh 11764193_at / RFU TMEM53 (11763286_at) / Fold change /veh TMEM53 (11763286_at) / RFU MAGEB2 (11727129_at) / Fold change /veh MAGEB2 (11727129_at) / RFU TMEM200A (11744735_a_at) / Fold change /veh TMEM200A (11744735_a_at) / RFU CCDC152 (11751479_a_at) / Fold change /veh CCDC152 (11751479_a_at) / RFU FAM211A (11726209_a_at) / Fold change /veh FAM211A (11726209_a_at) / RFU RGS16 (11746705_a_at) / Fold change /veh RGS16 (11746705_a_at) / RFU VCAN (11755009_s_at) / Fold change /veh VCAN (11755009_s_at) / RFU RHOB (11743442_s_at) / Fold change /veh RHOB (11743442_s_at) / RFU RGS16 (11720943_a_at) / Fold change /veh RGS16 (11720943_a_at) / RFU RGS16 (11720944_at) / Fold change /veh RGS16 (11720944_at) / RFU, VPS4B / Fold change vs veh, VPS4B / RFU, CREB1 / Fold change vs veh, CREB1 / RFU, DNAJC13 / Fold change vs veh, DNAJC13 / RFU, GNAQ / Fold change vs veh, GNAQ / RFU, CDK5R1 / Fold change vs veh, CDK5R1 / RFU, ZRANB3 / Fold change vs veh, ZRANB3 / RFU, CUL4A / Fold change vs veh, CUL4A / RFU, CCNY / Fold change vs veh, CCNY / RFU, UFL1 / Fold change vs veh, UFL1 / RFU, COG3 / Fold change vs veh, COG3 / RFU, DIAPH2 / Fold change vs veh, DIAPH2 / RFU, SKA2 / Fold change vs veh, SKA2 / RFU, AFF3 / Fold change vs veh, AFF3 / RFU, LMF1 / Fold change vs veh, LMF1 / RFU, IPO11 / Fold change vs veh, IPO11 / RFU, DFFB / Fold change vs veh, DFFB / RFU, FOXP1 / Fold change vs veh, FOXP1 / RFU, CARD8 / Fold change vs veh, CARD8 / RFU, STRN3 / Fold change vs veh, STRN3 / RFU, ADK / Fold change vs veh, ADK / RFU, RASSF2 / Fold change vs veh, RASSF2 / RFU, WIPF1 / Fold change vs veh, WIPF1 / RFU, LARP1B / Fold change vs veh, LARP1B / RFU, RASA1 / Fold change vs veh, RASA1 / RFU, RB1 / Fold change vs veh, RB1 / RFU, PPFIA1 / Fold change vs veh, PPFIA1 / RFU, MAT2A / Fold change vs veh, MAT2A / RFU, CCT5 / Fold change vs veh, CCT5 / RFU, WDR92 / Fold change vs veh, WDR92 / RFU, CUX1 / Fold change vs veh, CUX1 / RFU, TTC7A / Fold change vs veh, TTC7A / RFU, TMEM135 / Fold change vs veh, TMEM135 / RFU, DEPTOR / Fold change vs veh, DEPTOR / RFU, CPM / Fold change vs veh, CPM / RFU, DNAJB6 / Fold change vs veh, DNAJB6 / RFU, CACNA2D3 / Fold change vs veh, CACNA2D3 / RFU, DTX4 / Fold change vs veh, DTX4 / RFU, TFCP2 / Fold change vs veh, TFCP2 / RFU, GMCL1 /// GMCL1P1 / Fold change vs veh, GMCL1 /// GMCL1P1 / RFU, AEBP2 / Fold change vs veh, AEBP2 / RFU, SNHG1 /// SNORD22 /// SNORD25 /// SNORD26 /// SNORD27 /// SNORD28 /// SNORD29 /// SNORD31 / Fold change vs veh, SNHG1 /// SNORD22 /// SNORD25 /// SNORD26 /// SNORD27 /// SNORD28 /// SNORD29 /// SNORD31 / Fold change (Aza/veh), C12orf56 (ProbeSet 11735607_a_at) / Fold change (ACY-1035/veh), C12orf56 (ProbeSet 11735607_a_at) / Fold change (Aza/veh), FGFR1OP (ProbeSet 11751329_s_at) / Fold change (ACY-1035/veh), FGFR1OP (ProbeSet 11751329_s_at) / Fold change (Aza/veh), VPS36 (ProbeSet 11739960_a_at) / Fold change (ACY-1035/veh), VPS36 (ProbeSet 11739960_a_at) / RFU SYPL1 (11715823_x_at) / Fold change /veh SYPL1 (11715823_x_at) / RFU IGFBP7 (11715501_s_at) / Fold change /veh IGFBP7 (11715501_s_at) / RFU REEP3 (11722064_at) / Fold change /veh REEP3 (11722064_at) / RFU IGLL1 (11728026_x_at) / Fold change /veh IGLL1 (11728026_x_at): dose or concentration left out as unconfirmed
Details: ProbeSet 11760938_a_at; LIST D

SMILES: Nc1ccc(-c2cccs2)cc1NC(=O)c1ccc2c(c1)cc(C1CC1)n2CCN1CCOCC1 [ACY-1035]
- RFU, MAT2A: 163.17 RFU
